Assay results reported in patent US20020132030A1, “Composition and method for prolonging the useful life of enteral feeding tubes” (priority 1999, published 2002).

Legend:
Aspergillus niger [1] = assay: Challenge of propyl paraben, sodium benzoate, potassium sorbate singly and in combinations in Isosource HN, Example 4; assay type: cell-based
Experimental: (§1) The antimicrobials, propyl paraben, sodium benzoate, and potassium sorbate are challenged singly, and in combinations, against 5 organisms.
(§2) Isosource HN® is packaged and retorted with the allowable FDA limits. Three samples, A, B, or C are prepared, having, respectively, 0.13% propyl paraben (A), 0.1% sodium benzoate (B), and 0.1% potassium sorbate (C). Additional samples D, E, and F are mixtures of A & B, A & C, and A & B & C. Three control samples: G having 0.26% ethanol; H having no preservatives and 1, a blank control are also prepared. A 350-ml aliquot of each retorted product is transferred to a sterile flask and inoculated with one of the designated organisms. A like trial is initiated for each of five organisms, Aspergillus niger, Candida albicans, Enterobacter cloacae, Staphylococcus aureus, and Lactobacillus delbrueckii. These organisms are inoculated, respectively, at 44 organisms/ml product; 2 organisms/ml product; 2 organisms/ml product; 4.1 organisms/ml product, and 30 organisms/ml product. An ethanol control is included for all the tests because it is used as the solvent carrier for paraben. An inoculated control with no inhibitors is also used for comparison. The samples are incubated at the appropriate temperature for optimum growth, and aliquots are pulled for testing at the designated intervals. Results are read and recorded as the population per milliliter of sample tested.

Staphylococus aureus = assay: Challenge study using combinations of 4 GRAS antimicrobial agents, Example 2; assay type: cell-based
Experimental: (§3) A challenge study is done on commercially sterile product containing combinations of 4 GRAS antimicrobial agents: methyl paraben, propyl paraben, diacetyl, and natamycin. Ten different matrices are tested against 6 different organisms: A. niger, B. stearotherm, C. albicans, E. cloacae, L. Leichmanii, and S. aureus.

Aspergillus niger [2] = assay: as above; assay type: cell-based; conditions: for effectiveness against growth of Aspergillus niger: 0.2%
Experimental: as §3

Candida albicans [3] = assay: as above; assay type: cell-based; conditions: 0.2%
Experimental: as §3

Lactobacillus leichmanni = assay: as above; assay type: cell-based; conditions: 0.2%
Experimental: as §3

5 organisms = assay: Challenge of three antimicrobials, overall summary over 5 organisms, Example 4; assay type: cell-based; conditions: 0.13% propyl paraben, 0.1% sodium benzoate, 0.1% potassium sorbate in Isosource HN
Experimental: as §1
as §2, with “The samples are incubated at the appropriate temperature for optimum growth, and aliquots are pulled for testing at the designated intervals.” left out

Candida albicans [4] = assay: Feeding tube lifetime (clogging) test in vitro, Example 3; conditions: 0.1% in formula, feeding tube inoculated with 100 CFU Candida albicans, approximately 30° C.
Experimental: Feeding solution is perfused through a feeding tube and maintained at approximately 30° C. during the test, which may last several days or weeks. At the time the test is begun the solution within the feeding tube is inoculated with 100 CFU of Candida albicans. After a few hours of incubation (no flow in the tube), perfusion is started and continued until the tube becomes clogged due to overgrowth of the microorganisms.

Candida albicans [5] = assay: Paraben challenge in commercially sterile product (Isosource), Example 1; assay type: cell-based; conditions: 0.1% in Isosource
Experimental: (§4) Commercially sterile product (Isosource®) with 0.1% methyl or propyl paraben is prepared. Organisms were challenged in both variations at their optimum growth temperature and room temperature (RT). The populations are determined at different time intervals and compared to a spiked control without the parabens.

[6] = test system: 6 different organisms: A. niger, B. stearotherm, C. albicans, E. cloacae, L. Leichmanii, and S. aureus; assay: Challenge study using combinations, overall summary over all organisms, Example 2; assay type: cell-based; conditions: for synergistic effect: in combination with one of the parabens
Experimental: as §3

[7] = test system: Bacillus stearothermophilus; assay: Challenge study using combinations of 4 GRAS antimicrobial agents, Example 2; assay type: cell-based
Experimental: as §3

Enterobacter cloacae [8] = assay: as above; assay type: cell-based; conditions: 0.2%
Experimental: as §3

Enterobacter cloacae [9] = assay: Paraben challenge in commercially sterile product (Isosource), Example 1; assay type: cell-based; conditions: 0.1% in Isosource; for Inhibition of Enterobacter cloacae: 24 hours
Experimental: as §4

Candida albicans [10] = assay: Challenge of propyl paraben, sodium benzoate, potassium sorbate singly and in combinations in Isosource HN, Example 4; assay type: cell-based; conditions: 0.13% propyl paraben, 0.1% sodium benzoate, 0.1% potassium sorbate in Isosource HN
Experimental: as §1, §2

Enterobacter cloacae [11] = assay: as above; assay type: cell-based; conditions: 0.13% propyl paraben, 0.1% sodium benzoate, 0.1% potassium sorbate in Isosource HN
Experimental: as §1, §2

CCCOC(=O)c1ccc(O)cc1 [propyl paraben] was tested, and the “Aspergillus niger growth inhibition” value (Aspergillus niger [1]; 0.13% propyl paraben in Isosource HN, compared with the other antimicrobials) was “inhibited most”, the “spore growth of Aspergillus niger” value (Aspergillus niger [1]; 7 days) was “do not exhibit spore growth” and the “inhibition against S. aureus” value (Staphylococus aureus; 0.2% propyl paraben, summary statement) was “slight inhibition”. The “inhibitory effect on Staphylococus aureus” value (Staphylococus aureus; 0.2%, first 24 hours) was “slight inhibitory effect”, the “effectiveness against growth of Aspergillus niger” value (Aspergillus niger [2]) was “most effective” and the “inhibition of Candida albicans” value (Candida albicans [3]) was “good inhibition”. The “effectiveness against Lactobacillus leichmanni” value (Lactobacillus leichmanni) was “effective”, the “overall effectiveness over the five challenge organisms” value (5 organisms) was “more effective against 4 of the organisms than either of the other 2 antimicrobials alone” and the “extension of the time when clogging occurred beyond that attained with no paraben” value (Candida albicans [4]) was 1 to 2 weeks. The “lower CFU/ml of Candida albicans than the control” value (Candida albicans [5]; 7 days) was 2-3 log cycle, the “difference in Candida albicans CFU/ml from the control” value (Candida albicans [5]; 14 days) was under 2 logs and the “organisms showing good inhibition” value ([6]; 0.2%) was “good inhibition of three out of the six organisms”. For the same compound, the “overall inhibitory effectiveness among agents” value ([6]; 0.2%) was “most effective inhibitory agent overall”.
In the case of COC(=O)c1ccc(O)cc1 [methyl paraben], the “effectiveness against growth of Aspergillus niger” value (Aspergillus niger [2]) is reported as “most effective”, the “effectiveness alone against Aspergillus” value (Aspergillus niger [2]; alone, summary statement) is reported as “very effective” and the “inhibition of Bacillus stearothermophilus growth” value [7] is reported as “greatest amount of inhibition”. The “effectiveness alone against Bacillus” value ([7]; alone, summary statement) was “very effective”, the “inhibition of Candida albicans” value (Candida albicans [3]) was “slight inhibitory effect” and the “effectiveness against Lactobacillus leichmanni” value (Lactobacillus leichmanni) was “effective”. For the same compound, the “effect on Enterobacter cloacae growth” value (Enterobacter cloacae [8]; first 24 hours) was “slows growth slightly”, the “effect on Enterobacter cloacae growth” value (Enterobacter cloacae [8]; otherwise (other than first 24 hours)) was “uninhibited” and the “Inhibition of Enterobacter cloacae” value (Enterobacter cloacae [9]; 35° C.) was “dramatic”. The “difference in population compared to the control” value (Enterobacter cloacae [9]; 35° C., 48 hours) was 0.5 logs, the “Inhibition of Enterobacter cloacae” value (Enterobacter cloacae [9]; room temperature) was “slight inhibition” and the “growth lower than the propyl paraben sample” value (Enterobacter cloacae [9]; room temperature, 48 hours) was 1.5 logs. For the same compound, the “inhibition of the other organisms” value ([6]; alone) was “slightly inhibitory on three others”.
With C[C@@H]1C/C=C/C=C/C=C/C=C/[C@H](O[C@@H]2O[C@H](C)[C@@H](O)[C@H](N)[C@@H]2O)C[C@@H]2O[C@](O)(C[C@@H](O)C[C@H]3O[C@@H]3/C=C/C(=O)O1)C[C@H](O)[C@H]2C(=O)O [natamycin] the “effectiveness alone compared with the parabens” value ([6]; alone) was “not as effective alone as the parabens” and the synergistic effect [6] was “does not contribute any synergistic effect”.
For CC(=O)C(C)=O [diacetyl], the “effectiveness alone compared with the parabens” value ([6]; alone) was “not as effective alone as the parabens” and the synergistic effect [6] was “does not contribute any synergistic effect”.
With C/C=C/C=C/C(=O)[O-].[K+] [Potassium sorbate, potassium sorbate] the “inhibition of Candida albicans” value (Candida albicans [10]) was “not effective” and the “Inhibition of Enterobacter cloacae” value (Enterobacter cloacae [11]) was “most effective agent alone”.
